Source: ChEMBL document CHEMBL1201862, “PubChem BioAssay data set” (2004)
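Five compound concentrations were applied to cells in 96-well plates for 48 hours; endpoints were derived by simple linear interpolation of the resulting dose-response curve. GI50 = concentration required for 50% inhibition of growth.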 Active and inactive are the calls of the source. Cut-off read from the data, not from the text of the source: active = GI50 up to about 1.1 µM and inactive = higher.

Columns and labels:
Experiment in all cases: NCI-60 cell line screen, 48 h
ACHN = system: ACHN
COLO 205 = system: COLO 205
EKVX = system: EKVX
HCT-116 = system: HCT-116
HOP-62 = system: HOP-62
Hs-578T = system: Hs-578T
IGROV-1 = system: IGROV-1
K562 = system: K562
MDA-MB-231 = system: MDA-MB-231
MDA-MB-435 = system: MDA-MB-435
NCI-H522 = system: NCI-H522
NCI/ADR-RES = system: NCI/ADR-RES
OVCAR-4 = system: OVCAR-4
PC-3 = system: PC-3
SF-295 = system: SF-295
SF-539 = system: SF-539
SK-OV-3 = system: SK-OV-3
U-251 = system: U-251
UACC-62 = system: UACC-62
SNB-75 = system: SNB-75

| SMILES | GI50 (ACHN) | GI50 (COLO 205) | GI50 (EKVX) | GI50 (HCT-116) | GI50 (HOP-62) | GI50 (Hs-578T) | GI50 (IGROV-1) | GI50 (K562) | GI50 (MDA-MB-231) | GI50 (MDA-MB-435) | GI50 (NCI-H522) | GI50 (NCI/ADR-RES) | GI50 (OVCAR-4) | GI50 (PC-3) | GI50 (SF-295) | GI50 (SF-539) | GI50 (SK-OV-3) | GI50 (U-251) | GI50 (UACC-62) | GI50 (SNB-75) |
| --- | --- | --- | --- | --- | --- | --- | --- | --- | --- | --- | --- | --- | --- | --- | --- | --- | --- | --- | --- | --- |
| OCCCN=C1CCCCC1 | > 100 µM (inactive) | > 100 µM (inactive) | > 100 µM (inactive) | > 100 µM (inactive) | > 100 µM (inactive) | 69.8 µM (inactive) | > 100 µM (inactive) | > 100 µM (inactive) | > 100 µM (inactive) | > 100 µM (inactive) | 77.4 µM (inactive) | > 100 µM (inactive) | > 100 µM (inactive) | > 100 µM (inactive) | > 100 µM (inactive) | > 100 µM (inactive) | > 100 µM (inactive) | > 100 µM (inactive) | > 100 µM (inactive) |  |
| NC(CCC(=O)c1ccccn1)C(=O)O (stereo not drawn) | > 100 µM (inactive) | > 100 µM (inactive) | > 100 µM (inactive) | > 100 µM (inactive) | > 100 µM (inactive) | > 100 µM (inactive) | > 100 µM (inactive) |  | > 100 µM (inactive) | > 100 µM (inactive) | > 100 µM (inactive) | > 100 µM (inactive) | > 100 µM (inactive) | > 100 µM (inactive) | > 100 µM (inactive) | > 100 µM (inactive) | > 100 µM (inactive) | > 100 µM (inactive) | > 100 µM (inactive) |  |
| Cc1ccc(S(=O)(=O)Nn2c(S)c(C#N)c(-c3ccc(Cl)cc3)c(C#N)c2=O)cc1 | 31.6 µM (inactive) | 35.6 µM (inactive) | 32.9 µM (inactive) | 28.4 µM (inactive) |  |  | 20.6 µM (inactive) | 38.6 µM (inactive) | 36.2 µM (inactive) | 27.1 µM (inactive) | 16.6 µM (inactive) | 27.5 µM (inactive) | 15.1 µM (inactive) | 24.4 µM (inactive) | 32.9 µM (inactive) | 19.6 µM (inactive) | 61 µM (inactive) | 22.2 µM (inactive) | 27.7 µM (inactive) | 33.8 µM (inactive) |
| Cc1nc(-c2cc3cc(Cl)ccc3oc2=O)cc2c1c(=O)oc1ccc(Cl)cc12 | > 100 µM (inactive) | > 100 µM (inactive) | > 100 µM (inactive) | > 100 µM (inactive) | > 100 µM (inactive) | 72.3 µM (inactive) | > 100 µM (inactive) | > 100 µM (inactive) | > 100 µM (inactive) | > 100 µM (inactive) | 70.3 µM (inactive) | > 100 µM (inactive) |  | > 100 µM (inactive) | > 100 µM (inactive) |  | > 100 µM (inactive) | > 100 µM (inactive) | > 100 µM (inactive) |  |
| Cc1c(-c2ccccc2)n(C)c2cn[nH]c(=O)c12 | 44.3 µM (inactive) | 17.1 µM (inactive) | 18.1 µM (inactive) | 35.9 µM (inactive) | 30 µM (inactive) | 41.2 µM (inactive) | 70 µM (inactive) | 47.3 µM (inactive) | 17.9 µM (inactive) | 33.1 µM (inactive) | > 100 µM (inactive) | 26.7 µM (inactive) |  | 19.7 µM (inactive) | 25.2 µM (inactive) | 45 µM (inactive) | 27.1 µM (inactive) | 32.3 µM (inactive) | 34.9 µM (inactive) |  |
| CO[C@@H](c1ccccc1)[C@H](O)[C@@](O)(c1ccccc1)P(=O)(OC)OC | > 100 µM (inactive) | > 100 µM (inactive) | > 100 µM (inactive) | > 100 µM (inactive) |  | > 100 µM (inactive) | 48.2 µM (inactive) | > 100 µM (inactive) | > 100 µM (inactive) | 44.4 µM (inactive) | 78.9 µM (inactive) | > 100 µM (inactive) |  | > 100 µM (inactive) | > 100 µM (inactive) | > 100 µM (inactive) | > 100 µM (inactive) | > 100 µM (inactive) | > 100 µM (inactive) | > 100 µM (inactive) |
| O=C(Nc1ccc(Cl)cc1)NS(=O)(=O)c1c(-c2ccccc2)oc2ccccc2c1=O | 27.1 µM (inactive) | 56.4 µM (inactive) | > 100 µM (inactive) | 92.7 µM (inactive) | 71.6 µM (inactive) | > 100 µM (inactive) | 83 µM (inactive) | 48 µM (inactive) |  | 75 µM (inactive) | 1.97 µM (inactive) | 86.3 µM (inactive) | > 100 µM (inactive) | 56.8 µM (inactive) | 36.2 µM (inactive) | 47.9 µM (inactive) | > 100 µM (inactive) | 58.2 µM (inactive) | 1.97 µM (inactive) | > 100 µM (inactive) |
| CN1C(=O)C2CCC(=O)N2c2cccnc21 (stereo not drawn) | > 100 µM (inactive) | > 100 µM (inactive) | > 100 µM (inactive) | > 100 µM (inactive) | > 100 µM (inactive) | > 100 µM (inactive) | > 100 µM (inactive) | > 100 µM (inactive) | > 100 µM (inactive) | > 100 µM (inactive) | > 100 µM (inactive) | > 100 µM (inactive) | > 100 µM (inactive) |  | > 100 µM (inactive) | > 100 µM (inactive) |  | > 100 µM (inactive) | > 100 µM (inactive) |  |
| O=C1CSC(c2cccc([N+](=O)[O-])c2)N1c1ccc(-c2ccc(-n3c(-c4ccccc4)nc4ccccc4c3=O)cc2)cc1 (stereo not drawn) | 27 µM (inactive) | 21.1 µM (inactive) | 36.3 µM (inactive) | 24.7 µM (inactive) | 63.7 µM (inactive) | 49.1 µM (inactive) | 35.3 µM (inactive) | 24.7 µM (inactive) | 29.9 µM (inactive) | 27 µM (inactive) | 25.6 µM (inactive) | 37.2 µM (inactive) | 25.2 µM (inactive) | 21.9 µM (inactive) | 45.8 µM (inactive) | 46.5 µM (inactive) | > 100 µM (inactive) | 33.5 µM (inactive) | 28.8 µM (inactive) |  |
| O=C(/C=C/c1ccc(O)cc1)c1ccc2c(c1)OCO2 | 21.9 µM (inactive) | 14.7 µM (inactive) | 36.2 µM (inactive) | 12.5 µM (inactive) | 18.7 µM (inactive) |  | 15.5 µM (inactive) | 20.6 µM (inactive) | 17.5 µM (inactive) | 22.8 µM (inactive) | 12.8 µM (inactive) | 25.1 µM (inactive) | 21.1 µM (inactive) | 24.6 µM (inactive) | 21.8 µM (inactive) | 13.8 µM (inactive) | 26.1 µM (inactive) | 18.4 µM (inactive) | 18.7 µM (inactive) | 12.4 µM (inactive) |
| CCN(CCCN(CC)C(=O)N[C@@H](Cc1ccccc1)C(=O)NC)C(=O)N[C@@H](Cc1ccccc1)C(=O)NC | > 100 µM (inactive) | > 100 µM (inactive) | > 100 µM (inactive) | > 100 µM (inactive) | > 100 µM (inactive) | > 100 µM (inactive) |  |  | > 100 µM (inactive) | > 100 µM (inactive) | > 100 µM (inactive) | > 100 µM (inactive) | > 100 µM (inactive) | > 100 µM (inactive) | > 100 µM (inactive) | > 100 µM (inactive) | > 100 µM (inactive) | > 100 µM (inactive) | > 100 µM (inactive) |  |
| C=CCCC1CCCCNC1=S (stereo not drawn) | > 10 µM (inactive) | > 10 µM (inactive) | > 10 µM (inactive) | > 10 µM (inactive) | > 10 µM (inactive) | > 10 µM (inactive) | > 10 µM (inactive) | > 10 µM (inactive) | > 10 µM (inactive) | > 10 µM (inactive) |  | > 10 µM (inactive) | > 10 µM (inactive) | > 10 µM (inactive) | > 10 µM (inactive) | > 10 µM (inactive) | > 10 µM (inactive) | > 10 µM (inactive) | > 10 µM (inactive) |  |
| CC(C)(C)OC(=O)/C=C/[C@@H](CCC(=O)/C=C/[C@H](/C=C\CCCC(=O)O)NC1(c2ccccc2)c2ccccc2-c2ccccc21)O[Si](C)(C)C(C)(C)C | 17.8 µM (inactive) | 21.5 µM (inactive) | 19.2 µM (inactive) | 13.6 µM (inactive) | 17.5 µM (inactive) | 38.9 µM (inactive) | 16.5 µM (inactive) | 16 µM (inactive) | 14.1 µM (inactive) | 17.8 µM (inactive) | 18.5 µM (inactive) | 10.8 µM (inactive) | 17.1 µM (inactive) | 13.5 µM (inactive) | 15.5 µM (inactive) | 18.2 µM (inactive) | 46.6 µM (inactive) | 16.3 µM (inactive) | 13.9 µM (inactive) |  |
| COC(=O)c1cc(-c2c[nH]cc2C(=O)OCc2ccccc2)cn1S(=O)(=O)c1ccc(C)cc1 | > 100 µM (inactive) | > 100 µM (inactive) | 8.89 µM (inactive) | > 100 µM (inactive) | > 100 µM (inactive) | > 100 µM (inactive) | > 100 µM (inactive) | 7.5 µM (inactive) | > 100 µM (inactive) |  | > 100 µM (inactive) | 66.7 µM (inactive) | > 100 µM (inactive) | 36.7 µM (inactive) | > 100 µM (inactive) | > 100 µM (inactive) | > 100 µM (inactive) | > 10 µM (inactive) | > 100 µM (inactive) | > 100 µM (inactive) |
| CC1C(NNc2ccccc2)Oc2cc3c(cc2C1c1ccccc1O)OCO3 (stereo not drawn) | 0.962 µM (active) | 11.3 µM (inactive) | 10.9 µM (inactive) | 4.69 µM (inactive) | 3.1 µM (inactive) | 14.3 µM (inactive) | 1.7 µM (inactive) | 0.444 µM (active) | 13.4 µM (inactive) | 0.946 µM (active) | 0.575 µM (active) |  |  | 3.2 µM (inactive) | 0.632 µM (active) | 2.01 µM (inactive) | 10.5 µM (inactive) | 10.1 µM (inactive) | 1.44 µM (inactive) | 10.1 µM (inactive) |
